PubChem BioAssay AID1259411 (Chemical Carcinogenesis Research Information System (CCRIS), 2018)
The source made the active and inactive calls. The rule behind the calls is not given here.

System: rodent carcinogenicity bioassays, tumor incidence
Assay: CCRIS carcinogenicity studies
How it was run: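 Archive of carcinogenicity, mutagenicity, tumor promotion and tumor inhibition results drawn from journals, NCI reports and other sources, expert-reviewed; covers 1985-2011 and is no longer updated.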

## Nc1ccc(Cl)cc1
Species: MOUSE, Strain/Sex: B6C3F1/F, Route: GAVAGE, Dose: 0, 3, 10, 30 MG/KG IN ACIDIFIED WATER 5D/WK FOR 103 WK (STUDY DURATION: 104 WK, Dose: 0, 3, 10, 30 MG/KG IN ACIDIFIED WATER 5D/WK FOR 103 WK (STUDY DURATION: 104 WK
  carcinogen call: inactive; negative
Species: MOUSE, Strain/Sex: B6C3F1/FEMALE, Route: ORAL, Dose: 0, 2500, 5000 PPM IN DIET FOR 78 WK (STUDY DURATION: 91 WK), Dose: 0, 2500, 5000 PPM IN DIET FOR 78 WK (STUDY DURATION: 91 WK), Tumor Site: Type of Lesion: SPLEEN: HEMANGIOMA AND HEMANGIOSARCOMA, LIVER: HEMANGIOSARCOMA, MULTIPLE ORGANS: HEMANGIOSARCOMA, Tumor Site: Type of Lesion: SPLEEN: HEMANGIOMA AND HEMANGIOSARCOMA, LIVER: HEMANGIOSARCOMA, MULTIPLE ORGANS: HEMANGIOSARCOMA
  carcinogen call: equivocal
Species: MOUSE, Strain/Sex: B6C3F1/MALE, Route: GAVAGE, Dose: 0, 3, 10, 30 MG/KG IN ACIDIFIED WATER 5D/WK FOR 103 WK (STUDY DURATION: 104 WK), Dose: 0, 3, 10, 30 MG/KG IN ACIDIFIED WATER 5D/WK FOR 103 WK (STUDY DURATION: 104 WK), Tumor Site: Type of Lesion: LIVER: HEPATOCELLULAR CARCINOMA, LIVER: HEPATOCELLULAR ADENOMA OR CARCINOMA, CIRCULATORY SYSTEM: HEMANGIOSARCOMA, Tumor Site: Type of Lesion: LIVER: HEPATOCELLULAR CARCINOMA, LIVER: HEPATOCELLULAR ADENOMA OR CARCINOMA, CIRCULATORY SYSTEM: HEMANGIOSARCOMA
  carcinogen call: active; positive
Species: MOUSE, Strain/Sex: B6C3F1/MALE, Route: ORAL, Dose: 0, 2500, 5000 PPM IN DIET FOR 78 WK (STUDY DURATION: 91 WK), Dose: 0, 2500, 5000 PPM IN DIET FOR 78 WK (STUDY DURATION: 91 WK), Tumor Site: Type of Lesion: SPLEEN: HEMANGIOSARCOMA, LIVER: HEMANGIOMA AND HEMANGIOSARCOMA, KIDNEY: HEMANGIOSARCOMA, MULTIPLE ORGANS: HEMANGIOSARCOM, Tumor Site: Type of Lesion: SPLEEN: HEMANGIOSARCOMA, LIVER: HEMANGIOMA AND HEMANGIOSARCOMA, KIDNEY: HEMANGIOSARCOMA, MULTIPLE ORGANS: HEMANGIOSARCOM
  carcinogen call: equivocal
Species: RAT, Strain/Sex: F344/FEMALE, Route: GAVAGE, Dose: 0, 2, 6, 18 MG/KG IN ACIDIFIED WATER 5D/WK FOR 103 WK (STUDY DURATION: 104 WK), Dose: 0, 2, 6, 18 MG/KG IN ACIDIFIED WATER 5D/WK FOR 103 WK (STUDY DURATION: 104 WK), Tumor Site: Type of Lesion: SPLEEN: SARCOMA, ADRENAL GLAND: PHEOCHROMOCYTOMA
  carcinogen call: equivocal
Species: RAT, Strain/Sex: F344/FEMALE, Route: ORAL, Dose: 0, 250, 500 PPM IN DIET FOR 78 WK (STUDY DURATION: 102 WK), Dose: 0, 250, 500 PPM IN DIET FOR 78 WK (STUDY DURATION: 102 WK)
  carcinogen call: inactive; negative
Species: RAT, Strain/Sex: F344/MALE, Route: GAVAGE, Dose: 0, 2, 6, 18 MG/KG IN ACIDIFIED WATER 5D/WK FOR 103 WK (STUDY DURATION: 104 WK), Dose: 0, 2, 6, 18 MG/KG IN ACIDIFIED WATER 5D/WK FOR 103 WK (STUDY DURATION: 104 WK), Tumor Site: Type of Lesion: ADRENAL MEDULLA: PHEOCHROMOCYTOMA, ADRENAL MEDULLA: PHEOCHROMOCYTOMA OR MALIGNANT PHEOCHROMOCYTOMA, SPLEEN: FIBROSARCOMA, Tumor Site: Type of Lesion: ADRENAL MEDULLA: PHEOCHROMOCYTOMA, ADRENAL MEDULLA: PHEOCHROMOCYTOMA OR MALIGNANT PHEOCHROMOCYTOMA, SPLEEN: FIBROSARCOMA
  carcinogen call: active; positive
Species: RAT, Strain/Sex: F344/MALE, Route: ORAL, Dose: 0, 250, 500 PPM IN DIET FOR 78 WK (STUDY DURATION: 102 WK), Dose: 0, 250, 500 PPM IN DIET FOR 78 WK (STUDY DURATION: 102 WK), Tumor Site: Type of Lesion: SPLEEN OR PERITONEUM: SARCOMA
  carcinogen call: active; positive
Species: RAT, Strain/Sex: F344/MALE, Route: ORAL, Dose: 0, 250, 500 PPM IN DIET FOR 78 WK (STUDY DURATION: 102 WK), Dose: 0, 250, 500 PPM IN DIET FOR 78 WK (STUDY DURATION: 102 WK), Tumor Site: Type of Lesion: SPLEEN: FIBROMA AND SARCOMA
  carcinogen call: equivocal

## CNC(=O)Oc1ccccc1OC(C)C
Species: MOUSE, Strain/Sex: SWISS/FEMALE, Route: DERMAL, Dose: 0, 100 MG/KG BW IN 100 µL ACETONE 3/WK FOR 52 WK (STUDY DURATION: 52 WK)
  carcinogen call: inactive; negative
Species: MOUSE, Strain/Sex: SWISS/MALE, Route: DERMAL, Dose: 0, 100 MG/KG BW IN 100 µL ACETONE 3/WK FOR 52 WK (STUDY DURATION: 52 WK)
  carcinogen call: inactive; negative

## COc1cc2c(c3ccc4ccccc4c13)CCC2
Species: MOUSE, Strain/Sex: TO/MALE, FEMALE, Route: DERMAL, Dose: 0, 50 UG (10 µL OF A 0.5% W/V TOLUENE SOLUTION) 2/WK FOR 70 WK (STUDY DURATION: 70 WK), Tumor Site: Type of Lesion: SKIN: PAPILLOMA OR CARCINOMA
  carcinogen call: active; positive

## CC1CN(N=O)CC(C)N1 (stereo not drawn)
Species: RAT, Strain/Sex: F344/FEMALE, Route: ORAL, Dose: 0, 100 MG/L IN DRINKING WATER 5 D/WK FOR 29 WK, STUDY DURATION: 40-50 WK, Dose: 0, 100 MG/L IN DRINKING WATER 5 D/WK FOR 29 WK, STUDY DURATION: 40-50 WK, Tumor Site: Type of Lesion: THYMUS GLAND: LYMPHOMA OR LEUKEMIA, MULTIPLE SITES: LYMPHOMA OR LEUKEMIA
  carcinogen call: active; positive

## CCCCCCCC/C=C/CCCCCCCC(=O)OCCOCC(OCCO)C1OCC(OCCO)C1OCCO (stereo not drawn)
Species: MOUSE, Strain/Sex: B6C3F1/FEMALE, Route: ORAL, Dose: 0, 25000, 50000 PPM IN FEED 7 D/WK FOR 103 WK (STUDY DURATION: 103 WK), Dose: 0, 25000, 50000 PPM IN FEED 7 D/WK FOR 103 WK (STUDY DURATION: 103 WK)
  carcinogen call: inactive; negative
Species: MOUSE, Strain/Sex: B6C3F1/MALE, Route: ORAL, Dose: 0, 25000, 50000 PPM IN FEED 7 D/WK FOR 103 WK (STUDY DURATION: 103 WK), Dose: 0, 25000, 50000 PPM IN FEED 7 D/WK FOR 103 WK (STUDY DURATION: 103 WK)
  carcinogen call: inactive; negative
Species: RAT, Strain/Sex: F344/FEMALE, Route: ORAL, Dose: 0, 25000, 50000 PPM IN FEED 7 D/WK FOR 103 WK (STUDY DURATION: 103 WK), Dose: 0, 25000, 50000 PPM IN FEED 7 D/WK FOR 103 WK (STUDY DURATION: 103 WK)
  carcinogen call: inactive; negative
Species: RAT, Strain/Sex: F344/MALE, Route: ORAL, Dose: 0, 25000, 50000 PPM IN FEED 7 D/WK FOR 103 WK (STUDY DURATION: 103 WK), Dose: 0, 25000, 50000 PPM IN FEED 7 D/WK FOR 103 WK (STUDY DURATION: 103 WK), Tumor Site: Type of Lesion: ADRENAL MEDULLA: PHEOCHROMOCYTOMA
  carcinogen call: equivocal

## CCCC(OC(C)=O)N(CCCC(=O)OC)N=O (stereo not drawn)
Species: RAT, Strain/Sex: F344/MALE,FEMALE, Route: SUBCUTANEOUS, Dose: 38 UMOL/KG IN OLIVE OIL 1/WK FOR 10 WK, Tumor Site: Type of Lesion: INJECTION SITE: MALIGNANT FIBROUS HISTIOCYTOMA
  carcinogen call: active; positive

## CN(C=O)N=O
Species: HAMSTER, Strain/Sex: SYRIAN/FEMALE, Route: GAVAGE, Dose: 0, 0.6 MG IN CORN OIL 1/WK FOR 15 WK (STUDY DURATION: 30 WK)
  carcinogen call: inactive; negative
Species: HAMSTER, Strain/Sex: SYRIAN/MALE, Route: GAVAGE, Dose: 0, 0.6 MG IN CORN OIL 1/WK FOR 15 WK (STUDY DURATION: 35 WK), Tumor Site: Type of Lesion: FORESTOMACH: TUMOR
  carcinogen call: active; positive
Species: RAT, Strain/Sex: F344/FEMALE, Route: GAVAGE, Dose: 0, 0.6 MG IN CORN OIL 2/WK FOR 20 WK (STUDY DURATION: 40 WK), Tumor Site: Type of Lesion: FORESTOMACH: TUMOR, ESOPHAGUS: TUMOR
  carcinogen call: active; positive
Species: RAT, Strain/Sex: F344/MALE, Route: GAVAGE, Dose: 0, 0.6 MG IN CORN OIL 2/WK FOR 20 WK (STUDY DURATION: 40 WK), Tumor Site: Type of Lesion: FORESTOMACH: TUMOR
  carcinogen call: active; positive

## ClC(Cl)(Cl)c1ccccc1
Species: MOUSE, Strain/Sex: ICR/FEMALE, Route: GAVAGE, Dose: 0, 0.0315, 0.125, 0.5, 2 µL IN STERILIZED SESAME OIL 2/WK FOR 25 WK (STUDY DURATION: 18 MO), Dose: 0, 0.0315, 0.125, 0.5, 2 µL IN STERILIZED SESAME OIL 2/WK FOR 25 WK (STUDY DURATION: 18 MO), Tumor Site: Type of Lesion: FORESTOMACH: SQUAMOUS CELL CARCINOMA, LUNG: ADENOCARCINOMA OR ADENOMA, HEMATOPOIETIC SYSTEM: TUMORS, Tumor Site: Type of Lesion: FORESTOMACH: SQUAMOUS CELL CARCINOMA, LUNG: ADENOCARCINOMA OR ADENOMA, HEMATOPOIETIC SYSTEM: TUMORS
  carcinogen call: active; positive
